Source: the supplement of paper PMC10331698
± gives the standard deviation of the averaged measurements.

What was measured:
Assay in all cases: level (log10 ratio to DMSO vehicle control); higher = higher biomarker level / cell amount than vehicle control
[1] = compound: O=S(=O)(O)C(F)(F)C(F)(F)C(F)(F)C(F)(F)C(F)(F)C(F)(F)C(F)(F)F [Perfluoroheptanesulfonic acid] (in DMSO)
Method: (§1)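 BioMAP Diversity Plus panel of 12 human primary cell co-culture systems (3C, 4H, LPS, SAg, BT, BF4T, BE3C, CASM3C, HDF3CGF, KF3CT, MyoF, Mphg). Compounds were added 1 h before stimulation and left for 24 h (MyoF 48 h; BT 72 h for soluble read-outs or 6 d for IgG). Biomarkers were read by ELISA, cytotoxicity by SRB, PBMC viability and proliferation by Alamar Blue. Each well value was divided by the mean of 8 DMSO control wells on the same plate and log10 transformed; duplicate blinded samples were tested at 4 concentrations.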

[2] = compound: O=C(O)C(F)(OC(F)(F)C(F)(OC(F)(F)C(F)(OC(F)(F)C(F)(F)C(F)(F)F)C(F)(F)F)C(F)(F)F)C(F)(F)F [Perfluoro-(2,5,8-trimethyl-3,6,9-trioxadodecanoic)acid] (in DMSO)
Method: as §1

[3] = compound: CO[Si](C)(CCC(F)(F)C(F)(F)C(F)(F)C(F)(F)C(F)(F)C(F)(F)F)OC [Dimethoxymethyl((perfluorohexyl)ethyl)silane] (in DMSO)
Method: as §1

[4] = compound: C[C@@H]1C[C@H]2[C@@H]3CCC4=CC(=O)C=C[C@]4(C)[C@@]3(F)[C@@H](O)C[C@]2(C)[C@@]1(O)C(=O)COP(=O)(O)O [Dexamethasone sodium phosphate] (in DMSO)
Method: as §1

[5] = compound: O=S(=O)(O)CCC(F)(F)C(F)(F)C(F)(F)C(F)(F)C(F)(F)C(F)(F)C(F)(F)C(F)(F)F [8:2 Fluorotelomer sulfonic acid] (in DMSO)
Method: as §1

[6] = compound: NS(=O)(=O)C(F)(F)C(F)(F)C(F)(F)C(F)(F)C(F)(F)C(F)(F)C(F)(F)C(F)(F)F [Perfluorooctanesulfonamide] (in DMSO)
Method: as §1

| Test System | level (log10) ([1]; 1500 nM) | level (log10) ([1]; 4400 nM) | level (log10) ([1]; 13000 nM) | level (log10) ([1]; 40000 nM) | level (log10) ([2]; 1100 nM) | level (log10) ([2]; 3300 nM) | level (log10) ([2]; 10000 nM) | level (log10) ([3]; 6700 nM) | level (log10) ([3]; 20000 nM) | level (log10) ([4]; 1500 nM) | level (log10) ([4]; 4400 nM) | level (log10) ([4]; 13000 nM) | level (log10) ([4]; 40000 nM) | level (log10) ([5]; 6700 nM) | level (log10) ([5]; 20000 nM) | level (log10) ([5]; 60000 nM) | level (log10) ([6]; 6700 nM) | level (log10) ([6]; 20000 nM) |
| --- | --- | --- | --- | --- | --- | --- | --- | --- | --- | --- | --- | --- | --- | --- | --- | --- | --- | --- |
| BE3C:CXCL8/IL-8 | 0.0105 ± 0.018 | 0.02 ± 0.0099 | 0.0405 ± 0.019 | 0.0595 ± 0.057 | 0.05 ± 0.038 | 0.039 ± 0.023 | 0.0625 ± 0.00071 | -0.006 ± 0.0085 | 0.038 ± 0.038 | -0.094 ± 0.044 | -0.137 ± 0.015 | -0.171 ± 0.0092 | -0.157 ± 0.011 | -0.0045 ± 0.022 | -0.06 ± 0.0014 | -0.134 ± 0.005 | -0.123 ± 0.0099 | -0.192 ± 0.013 |
| BE3C:CXCL9/MIG | -0.011 ± 0.02 | -0.009 ± 0.025 | -0.006 ± 0.013 | -0.006 ± 0.016 | -0.001 ± 0.0071 | 0.0025 ± 0.0078 | 0.0045 ± 0.015 | 0.002 ± 0.0042 | 0.001 ± 0.0071 | -0.0065 ± 0.019 | 0.003 ± 0.02 | -0.01 ± 0.014 | -0.0085 ± 0.00071 | -0.002 ± 0.0085 | -0.015 ± 0.0028 | -0.03 ± 0.011 | -0.0015 ± 0.0021 | 0.013 ± 0.013 |
| BE3C:CXCL10/IP-10 | 0.0075 ± 0.0035 | 0.0055 ± 0.0078 | -0.01 ± 0.024 | -0.039 ± 0.016 | 0.035 ± 0.024 | 0.0325 ± 0.015 | 0.036 ± 0.0071 | -0.0025 ± 0.0078 | -0.0065 ± 0.0021 | 0.0215 ± 0.021 | 0.014 ± 0.028 | 0 ± 0.02 | -0.0035 ± 0.016 | -0.0205 ± 0.012 | -0.122 ± 0.019 | -0.237 ± 0.02 | -0.142 ± 0.0078 | -0.414 ± 0.0028 |
| BE3C:CXCL11/I-TAC | -0.0095 ± 0.069 | 0.021 ± 0.038 | 0.0255 ± 0.011 | 0.0495 ± 0.025 | 0.0145 ± 0.0092 | 0.0165 ± 0.013 | 0.014 ± 0.016 | -0.0055 ± 0.019 | -0.0125 ± 0.0035 | 0 ± 0.018 | 0.0145 ± 0.0021 | -0.0175 ± 0.04 | -0.0215 ± 0.0078 | 0.0385 ± 0.0021 | 0.016 ± 0.0071 | -0.0915 ± 0.015 | -0.0565 ± 0.013 | -0.183 ± 0.06 |
| BE3C:EGFR | 0.019 ± 0.025 | -0.008 ± 0.0042 | -0.002 ± 0.023 | -0.012 ± 0.038 | 0.0085 ± 0.0021 | 0.0035 ± 0.0035 | 0.0185 ± 0.0078 | 0.001 ± 0.011 | -0.01 ± 0.017 | 0.008 ± 0.042 | -0.0035 ± 0.013 | -0.011 ± 0.0071 | -0.0145 ± 0.005 | 0.002 ± 0.0028 | -0.014 ± 0.018 | 0.004 ± 0.0099 | -0.0005 ± 0.00071 | -0.044 ± 0.0014 |
| BE3C:HLA-DR | 0.01 ± 0.014 | -0.013 ± 0.016 | -0.01 ± 0.021 | -0.028 ± 0.033 | -0.0055 ± 0.005 | -0.0095 ± 0.0021 | 0.0085 ± 0.0078 | -0.0045 ± 0.0021 | -0.0235 ± 0.012 | 0.0175 ± 0.026 | -0.0205 ± 0.033 | 0.0195 ± 0.011 | 0.035 ± 0.017 | -0.0175 ± 0.037 | -0.111 ± 0.005 | -0.255 ± 0.0014 | -0.0975 ± 0.013 | -0.136 ± 0.011 |
| BE3C:IL-1alpha | 0.0275 ± 0.005 | 0.006 | 0.001 ± 0.0099 | 0.039 ± 0.03 | -0.019 ± 0.0028 | -0.0175 ± 0.035 | 0.004 ± 0.018 | 0.0025 ± 0.018 | 0.021 ± 0.0071 | -0.025 ± 0.0028 | -0.054 ± 0.0028 | -0.0395 ± 0.0092 | -0.0225 ± 0.036 | 0.016 ± 0.027 | -0.0055 ± 0.0064 | -0.043 ± 0.037 | -0.005 ± 0.023 | -0.066 ± 0.017 |
| BF4T:CCL2/MCP-1 | 0.009 ± 0.041 | 0 ± 0.013 | -0.092 ± 0.028 | 0.016 ± 0.014 | 0.007 ± 0.028 | 0.0015 ± 0.00071 | -0.004 ± 0.017 | -0.0175 ± 0.00071 | 0.01 ± 0.021 | -0.0085 ± 0.019 | -0.0165 ± 0.0035 | -0.017 ± 0.0014 | -0.0135 ± 0.018 | 0.037 ± 0.023 | -0.019 ± 0.0028 | -0.002 ± 0.034 | -0.084 ± 0.0071 | -0.0565 ± 0.018 |
| BF4T:CCL26/Eotaxin-3 | 0.053 ± 0.05 | 0.01 | -0.0715 ± 0.011 | -0.069 ± 0.058 | -0.026 ± 0.018 | 0.009 ± 0.025 | 0.034 ± 0.021 | 0.0285 ± 0.011 | -0.0075 ± 0.0092 | -0.0755 ± 0.043 | -0.134 ± 0.086 | -0.115 ± 0.012 | -0.122 ± 0.03 | -0.0635 ± 0.05 | -0.179 ± 0.05 | -0.203 ± 0.0099 | -0.117 ± 0.017 | -0.169 ± 0.014 |
| BF4T:CD54/ICAM-1 | 0.009 ± 0.011 | 0.004 ± 0.017 | -0.0155 ± 0.0035 | 0.0125 ± 0.016 | 0.0025 ± 0.018 | 0.004 ± 0.0042 | 0.004 ± 0.0085 | -0.006 ± 0.0071 | -0.008 ± 0.0099 | -0.003 ± 0.021 | -0.0105 ± 0.011 | -0.0205 ± 0.0021 | -0.0005 ± 0.015 | -0.006 ± 0.0014 | -0.0175 ± 0.00071 | -0.0325 ± 0.013 | -0.029 ± 0.0014 | -0.06 ± 0.045 |
| BF4T:CD90 | -0.004 ± 0.0014 | -0.004 | -0.027 ± 0.0085 | -0.0205 ± 0.013 | 0.001 ± 0.0042 | 0 ± 0.0028 | 0.0085 ± 0.0035 | 0.0085 ± 0.018 | 0 ± 0.021 | 0.009 ± 0.018 | -0.002 ± 0.023 | -0.005 ± 0.018 | 0.0025 ± 0.015 | -0.008 ± 0.0028 | -0.018 ± 0.0014 | -0.0355 ± 0.0092 | -0.0275 ± 0.012 | -0.0585 ± 0.016 |
| BF4T:CD106/VCAM-1 | 0.017 ± 0.024 | 0.001 ± 0.0042 | -0.0765 ± 0.0064 | -0.094 ± 0.0099 | -0.027 ± 0.0028 | -0.0185 ± 0.026 | -0.018 ± 0.023 | 0.018 ± 0.0014 | -0.003 ± 0.02 | -0.019 ± 0.011 | -0.013 ± 0.028 | -0.02 ± 0.0085 | -0.049 ± 0.0042 | 0.0035 ± 0.035 | -0.0285 ± 0.03 | -0.041 ± 0.0028 | -0.052 ± 0.0057 | -0.1125 ± 0.00071 |
| BF4T:CXCL8/IL-8 | 0.015 ± 0.014 | 0.006 ± 0.0014 | 0.049 ± 0.0014 | 0.121 ± 0.02 | 0.0365 ± 0.0078 | 0.034 ± 0.024 | 0.034 ± 0.016 | -0.005 ± 0.027 | 0.012 ± 0.018 | -0.0315 ± 0.04 | -0.0495 ± 0.046 | -0.0715 ± 0.033 | -0.0435 ± 0.00071 | 0.0015 ± 0.0035 | -0.0105 ± 0.0078 | -0.0055 ± 0.0078 | 0.003 ± 0.0057 | 0.0405 ± 0.013 |
| BF4T:IL-1alpha | 0.0205 ± 0.025 | 0.0055 ± 0.005 | 0.01 ± 0.0014 | 0.0205 ± 0.016 | -0.005 ± 0.0099 | -0.0105 ± 0.00071 | -0.0025 ± 0.0035 | -0.0245 ± 0.0078 | 0.014 ± 0.035 | 0.0045 ± 0.028 | -0.001 ± 0.013 | -0.0165 ± 0.013 | 0.004 ± 0.023 | 0.004 ± 0.016 | -0.01 ± 0.014 | 0.0065 ± 0.018 | 0.0095 ± 0.012 | -0.0455 ± 0.022 |
| BF4T:Keratin 8/18 | 0.009 ± 0.025 | -0.012 ± 0.013 | -0.027 ± 0.0014 | 0.0125 ± 0.015 | 0.024 ± 0.0099 | 0.0055 ± 0.022 | 0.018 ± 0.0099 | 0.029 ± 0.034 | 0.006 ± 0.016 | 0.011 ± 0.047 | -0.0015 ± 0.013 | -0.0105 ± 0.019 | -0.0025 ± 0.015 | 0.004 ± 0.0099 | -0.0005 ± 0.018 | 0.0245 ± 0.0078 | -0.0085 ± 0.005 | -0.069 ± 0.023 |
| BF4T:MMP-1 | 0.0055 ± 0.0078 | -0.0055 ± 0.005 | -0.019 ± 0.0014 | 0.0225 ± 0.0092 | 0.0005 ± 0.0092 | -0.0045 ± 0.011 | 0.0065 ± 0.018 | -0.01 ± 0.054 | 0.0085 ± 0.023 | 0.006 ± 0.0014 | -0.012 ± 0.013 | -0.0215 ± 0.0092 | -0.0125 ± 0.0021 | 0.005 ± 0.0085 | -0.002 ± 0.0071 | 0.0035 ± 0.0021 | 0.003 ± 0.016 | 0.0075 ± 0.019 |
